# Experimental data: patent publication US8871681B2, “Herbicidal compositions comprising 4-amino-3-chloro-5-fluoro-6-(4-chloro-2-fluoro-3-methoxyphenyl) pyridine-2-carboxylic acid or a derivative thereof and certain sulfonylureas” (Dow AgroSciences LLC, priority 2012, dated 2014)
# Experiments:
# [1] = test system: POROL (Portulaca oleracea, portulaca); experiment: Post-emergence herbicidal activity of mixtures in forage crops, greenhouse (Example IV); assay type: in vivo, Portulaca oleracea L.; details: Table 58 (forage); foliar-applied; after approximately 21 days; 1.1 gai/ha alone
# Method: (§1) Seeds or root cuttings of the desired test plant species were planted in Sun Gro MetroMix® 306 planting mixture, which typically has a pH of 6.0 to 6.8 and an organic matter content of about 30 percent, in plastic pots with a surface area of 126.6 square centimeters (cm^2). When required to ensure good germination and healthy plants, a fungicide treatment and/or other chemical or physical treatment was applied. The plants were grown for 14-60 days in a greenhouse with an approximate 14 hour photoperiod which was maintained at approximately 28° C. during the day and 24° C. during the night. Nutrients and water were added on a regular basis and supplemental lighting was provided with overhead metal halide 1000-Watt lamps as necessary. The plants were employed for testing when they reached the BBCH13 to BBCH23 leaf stage.
# (§2) Treatments consisted of the benzyl ester of 4-amino-3-chloro-5-fluoro-6-(4-chloro-2-fluoro-3-methoxy-phenyl)pyridine-2-carboxylic acid (Compound A), formulated as a SC, and a second herbicide alone and in combination.
# (§3) A measured aliquot of Compound A was placed in 25 milliliter (mL) glass vial and diluted in a volume of 1.25% (v/v) Agri-dex crop oil concentrated to obtain stock solutions. Compound requirements are based upon a 12 mL application volume at a rate of 187 liters per hectare (L/ha). Spray solutions of the second cereal herbicide and experimental compound mixtures were prepared by adding the stock solutions to the appropriate amount of dilution solution to form 12 mL spray solution with active ingredients in two- and three-way combinations. […]
# (§4) The treated plants and control plants were placed in a greenhouse as described above and watered by sub-irrigation to prevent wash-off of the test compounds. After approximately 21 days, the condition of the test plants, as compared with that of the control plants, was determined visually and scored on a scale of 0 to 100 percent where 0 corresponds to no injury and 100 corresponds to complete kill. […]
# [2] = test system: SIDSP (Sida spinosa, prickly sida); experiment: as above; assay type: in vivo, Sida spinosa L.; details: Table 58 (forage); foliar-applied; after approximately 21 days; 1.1 gai/ha alone
# Method: as §1, §2, §3, §4
# [3] = test system: CASOB (Cassia obtusifolia, sicklepod); experiment: as above; assay type: in vivo, Cassia obtusifolia L.; details: Table 58 (forage); foliar-applied; after approximately 21 days; 1.1 gai/ha alone
# Method: as §1, §2, §3, §4
# [4] = test system: IPOHE (Ipomoea hederacea, ivyleaf morningglory); experiment: Postemergence foliar-applied weed control, direct seeded rice, greenhouse (Example I); assay type: in vivo, Ipomoea hederacea Jacq.; details: 21 DAA
# Source text: Seeds or nutlets of the desired test plant species were planted in a soil matrix prepared by mixing a loam or sandy loam soil (e.g., 28.6 percent silt, 18.8 percent clay, and 52.6 percent sand, with a pH of about 5.8 and an organic matter content of about 1.8 percent) and calcareous grit in an 80 to 20 ratio. The soil matrix was contained in plastic pots with a volume of 1 quart and a surface area of 83.6 square centimeters (cm^2). When required to ensure good germination and healthy plants, a fungicide treatment and/or other chemical or physical treatment was applied. The plants were grown for 8-22 days in a greenhouse with an approximate 14 h photoperiod which was maintained at about 29° C. during the day and 26° C. during the night. Nutrients (Peters Excel® 15-5-15 5-Ca 2-Mg and iron chelate) were applied in the irrigation solution as needed and water was added on a regular basis. Supplemental lighting was provided with overhead metal halide 1000-Watt lamps as necessary. The plants were employed for testing when they reached the first through fourth true leaf stage.
# Treatments consisted of the acid or esters of 4-amino-3-chloro-5-fluoro-6-(4-chloro-2-fluoro-3-methoxy-phenyl)pyridine-2-carboxylic acid (Compound A), each formulated as an SC, and various herbicidal components alone and in combination. Forms of compound A were applied on an acid equivalent basis.
# Other herbicidal components were applied on an active ingredient basis and included acetolactate synthase (ALS)-inhibiting herbicides (sulfonylurea chemical class) azimsulfuron formulated as Gulliver®, bensulfuron-methyl formulated as Londax® 60DF, cyclosulfamuron (technical material), ethoxysulfuron formulated as Sunrice® 15 WDG, flazasulfuron formulated as Katana®, flucetosulfuron formulated as Sukedachi® 1KG G, foramsulfuron formulated as Option®, imazosulfuron formulated as Brazzos® WG, iodosulfuron-methyl-sodium formulated as Hussar®, metsulfuron-methyl formulated as Lorate®, nicosulfuron formulated as Accent®, orthosulfamuron formulated as Strada® WG, primisulfuron-methyl (technical material), propyrisulfuron formulated as Zeta One®, rimsulfuron formulated as Matrix® WG, sulfometuron-methyl formulated as Oust®, and trifloxysulfuron-sodium formulated as Monument® 75WG.
# Treatment requirements were calculated based upon the rates being tested, the concentration of active ingredient or acid equivalent in the formulation, and a 12 mL application volume at a rate of 187 L/ha.
# For treatments comprised of formulated compounds, measured amounts of compounds were placed individually in 25 mL glass vials and diluted in a volume of 1.25% (v/v) Agri-Dex® crop oil concentrated to obtain 12× stock solutions. […] Application solutions were prepared by adding an appropriate amount of each stock solution (e.g., 1 mL) and diluted to the appropriate final concentrations with the addition of 10 mL of an aqueous mixture of 1.25% (v/v) crop oil concentrate so that the final spray solutions contained 1.25+/−0.05% (v/v) Agrcrop oil concentrate.
# For treatments comprised of formulated and technical compounds, weighed amounts of the technical materials were placed individually in 25 mL glass vials and dissolved in a volume of 97:3 v/v acetone/DMSO to obtain 12× stock solutions, and measured amounts of the formulated compounds were placed individually in 25 mL glass vials and diluted in a volume of 1.25% (v/v) crop oil concentrate to obtain 12× stock solutions. […] Application solutions were prepared by adding an appropriate amount of each stock solution (e.g., 1 mL) and diluted to the appropriate final concentrations with the addition of an appropriate amount of an aqueous mixture of 1.5% (v/v) crop oil concentrate so that the final spray solutions contained 1.25% (v/v) crop oil concentrate. […]
# [5] = test system: MATCH (Chamomilla chamomilla, scented mayweed); experiment: Post-emergence foliar-applied weed control in cereal crops, greenhouse (Example III); assay type: in vivo, Chamomilla chamomilla (L.) Rydb.
# Method: as §1, with “Seeds” for “Seeds or root cuttings”, “103.2” for “126.6”, “7-36” for “14-60”, “about 18°” for “approximately 28°”, “17°” for “24°”, “second or third true” for “BBCH13 to BBCH23”
# (§5) Treatments consisted of the benzyl ester of 4-amino-3-chloro-5-fluoro-6-(4-chloro-2-fluoro-3-methoxy-phenyl)pyridine-2-carboxylic acid (Compound A), formulated as an SC (suspension concentrate), and a second cereal herbicide alone and in combination.
# (§6) Measured aliquot of benzyl ester of 4-amino-3-chloro-5-fluoro-6-(4-chloro-2-fluoro-3-methoxy-phenyl)pyridine-2-carboxylic acid (Compound A) was placed in 25 milliliter (mL) glass vials and diluted in a volume of 1.25% (v/v) Agri-dex crop oil concentrated to obtain stock solutions. Compound requirements are based upon a 12 mL application volume at a rate of 187 liters per hectare (L/ha). Spray solutions of the second cereal herbicide and experimental compound mixtures were prepared by adding the stock solutions to the appropriate amount of dilution solution to form 12 mL spray solution with active ingredients in two- and three-way combinations. Formulated compounds were applied to the plant material with an overhead Mandel track sprayer equipped with an 8002E nozzle calibrated to deliver 187 L/ha over an application area of 0.503 square meters (m^2) at a spray height of 18 inches (46 cm) above average plant canopy. Control plants were sprayed in the same manner with the solvent blank.
# (§7) The treated plants and control plants were placed in a greenhouse as described above and watered by sub-irrigation to prevent wash-off of the test compounds. After 20-22 days, the condition of the test plants as compared with that of the control plants was determined visually and scored on a scale of 0 to 100 percent where 0 corresponds to no injury and 100 corresponds to complete kill.
# (§8) Colby's equation was used to determine the herbicidal effects expected from the mixtures (Colby, S. R. 1967. Calculation of the synergistic and antagonistic response of herbicide combinations. Weeds 15:20-22.).
# (§9) The following equation was used to calculate the expected activity of mixtures containing two active ingredients, A and B: Expected=A+B−(A×B/100)
# [6] = test system: VIOTR (Viola tricolor, wild pansy); experiment: as above; assay type: in vivo, Viola tricolor (L.)
# Method: as §1, with “Seeds” for “Seeds or root cuttings”, “103.2” for “126.6”, “7-36” for “14-60”, “about 18°” for “approximately 28°”, “17°” for “24°”, “second or third true” for “BBCH13 to BBCH23”
# as §5, §6, §7, §8, §9
# [7] = test system: CIRAR (Cirsium arvense, Canada thistle); experiment: as above; assay type: in vivo, Cirsium arvense (L.) Scop.; details: Cirsium arvense, post-emergence, foliar-applied, after 20-22 days, read-out: Weed Control CIRAR Obs
# Method: as §1, with “Seeds” for “Seeds or root cuttings”, “103.2” for “126.6”, “7-36” for “14-60”, “about 18°” for “approximately 28°”, “17°” for “24°”, “second or third true” for “BBCH13 to BBCH23”
# as §5, §6, §7, §8, §9
# [8] = test system: VERPE (Veronica persica, bird's-eye speedwell); experiment: as above; assay type: in vivo, Veronica persica Poir.; details: Table 57, after 20-22 days, 8.75 gai/ha Sulfosulfuron alone
# Method: as §1, with “Seeds” for “Seeds or root cuttings”, “103.2” for “126.6”, “7-36” for “14-60”, “about 18°” for “approximately 28°”, “17°” for “24°”, “second or third true” for “BBCH13 to BBCH23”
# as §5, §6, §7, §8, §9
# [9] = test system: LAMPU (Lamium purpureum, purple deadnettle); experiment: as above; assay type: in vivo, Lamium purpureum (L.); details: Table 57, after 20-22 days, 8.75 gai/ha Sulfosulfuron alone
# Method: as §1, with “Seeds” for “Seeds or root cuttings”, “103.2” for “126.6”, “7-36” for “14-60”, “about 18°” for “approximately 28°”, “17°” for “24°”, “second or third true” for “BBCH13 to BBCH23”
# as §5, §6, §7, §8, §9
# [10] = Table 54, after 20-22 days, 2.5 gai/ha alone
smiles,measurement,setting,value
COC(=O)c1ccccc1S(=O)(=O)NC(=O)Nc1nc(C)nc(OC)n1 [Metsulfuron ME],Weed Control POROL Obs,[1],80%
same,Weed Control SIDSP Obs,[2],52%
same,Weed Control CASOB Obs,[3],8%
"COC(=O)c1ccc(I)cc1S(=O)(=O)[N-]C(=O)Nc1nc(C)nc(OC)n1.[Na+] [Iodosulfuron-methyl sodium, methyl 4-iodo-2-[[[[(4-methoxy-6-methyl-1,3,5-triazin-2-yl)amino]carbonyl]amino]sulfonyl]benzoate, sodium salt, reference compound]",Visual Weed Control (%) Obs,[4]; 2.5 gai/ha,90%
same,Visual Weed Control (%) Obs,[4]; 5 gai/ha,95%
same,Weed Control MATCH Obs,[5]; [10],94%
same,Weed Control VIOTR Obs,[6]; [10],82%
same,pest or weed control at 2.5 g/ha,"[7]; Table 54, 2.5 gai/ha alone",60%
COc1nc(C)nc(NC(=O)NS(=O)(=O)c2ccccc2Cl)n1 [Chlorsulfuron],Weed Control VIOTR Obs,"[6]; Table 52, after 20-22 days, 2.2 gai/ha alone",70%
same,pest or weed control at 2.2 g/ha,"[7]; Table 52, 2.2 gai/ha alone",78%
CCS(=O)(=O)c1nc2ccccn2c1S(=O)(=O)NC(=O)Nc1nc(OC)cc(OC)n1 [Sulfosulfuron],Weed Control VERPE Obs,[8],35%
same,Weed Control MATCH Obs,"[5]; Table 57, after 20-22 days, 8.75 gai/ha Sulfosulfuron alone",95%
same,Weed Control LAMPU Obs,[9],5%
same,pest or weed control at 8.75 g/ha,"[7]; Table 57, 8.75 gai/ha Sulfosulfuron alone",70%
